Entries after “also recorded” stand apart in the source; their conditions may differ.
Key:
[1] = system: loperamide-treated wild-type mice; assay: Loperamide-induced constipation model in wild-type mice; assay type: in vivo
Experimental: Female CD1 mice (age 8-10 weeks) were administered loperamide (0.3 mg/kg, intraperitoneally, Sigma-Aldrich) to produce constipation. Compound A1 (DRAinh-A250) (5 mg/kg, in saline containing vehicle (5% DMSO and 10% Kolliphor HS 15; Sigma-Aldrich)), tenapanor (5 mg/kg, in vehicle), both compounds (5 mg/kg each, in vehicle), or vehicle alone were administered by oral gavage 1 hour before loperamide. After loperamide injection, mice were placed individually in metabolic cages with ad libitum access to food and water. Stool samples were collected for 3 h, and total stool weight and number of fecal pellets were quantified. To measure stool water content, stool samples were dried at 80° C. for 24 h and water content was calculated as [wet weight-dry weight]/wet weight. Similar studies were done in cystic fibrosis (CF) mice (ΔF508 homozygous) lacking functional CFTR.
Constipation Model in MiceDRAinh-A260 and DRAinh-A270 were tested in a loperamide-induced constipation model in mice. Female CD1 mice (age 8-10 weeks) were administered loperamide (0.3 mg/kg, intraperitoneally, in 5% ethanol in PBS, 0.1 mg/mL final concentration) to produce constipation and vehicle in control mice. DRAinh-A260 (5 mg/kg, in saline with 5% DMSO and 10% Kolliphor HS 15) or DRAinh-A270 (1, 3 or 10 mg/kg, in PBS with 5% DMSO and 20% (2- hydroxypropyl)-β-cyclodextrin) or vehicle alone were administered by oral gavage 1 hour before loperamide (FIG. 11A). After loperamide injection, mice were placed individually in metabolic cages with free access to food and water. Stool samples were collected for 3 hours, and total stool weight and number of fecal pellets were quantified. To measure stool water content, stool samples were dried at 80° C. for 24 hours and water content was calculated as [wet weight-dry weight]/wet weight.

[2] = system: acute hyperoxaluria in mice; assay: Acute hyperoxaluria induced by oral sodium oxalate; assay type: in vivo
Experimental: The efficacy of Compound A1 (DRAinh-A250) and DRAinh-A270 were tested in models of acute hyperoxaluria and oxalate nephropathy in mice. To induce acute hyperoxaluria, mice were given sodium oxalate ([…]) with or without 5 mg/kg Compound A1 by oral gavage at zero time and urine was collected for the next 4 hours in metabolic cages. A group of mice were used as controls and treated with vehicle only (no sodium oxalate or DRA inhibitor) and their urine was collected for 4 hours in metabolic cages as well. Using the 4 hour urine samples, urine oxalate/creatinine ratio was determined to quantify urinary oxalate excretion.
Similar experiments were performed for DRAinh-A270 in the acute hyperoxaluria model. For these experiments mice were first placed in metabolic cages to collect urine for 4 hours without any treatment. After this initial collection, the mice were treated with DRAinh-A270 (10 mg/kg) or vehicle intraperitoneally, and given sodium oxalate ([…], in water) by oral gavage at zero time. Urine was collected for the next 4 hours in metabolic cages.

Row | SMILES | three-hour stool weight, number of pellets and stool water content ([1]; 5 mg/kg oral gavage 1 hour before loperamide, wild-type mice) | 4 hour urine oxalate/creatinine ratio (hyperoxaluria) ([2]; 5 mg/kg oral gavage with sodium oxalate 1 µmol/kg) | stool parameters / diarrhea in control mice ([1]; 10 mg/kg oral, mice not treated with loperamide) | stool weight, pellet number and water content, dose-dependence ([1]; 1, 3 or 10 mg/kg oral gavage 1 hour before loperamide) | 4-hour urine oxalate/creatinine ratio (hyperoxaluria) ([2]; 10 mg/kg intraperitoneally, sodium oxalate 2.5 µmol/kg oral)
1 | Cc1c(CC(=O)O)c(=O)oc2c(C)c(OCc3cccc(Br)c3)ccc12 [Compound A1] | partially prevented; also recorded: comparably reduced signs of constipation; also recorded: reduces loperamide-induced constipation | largely prevented hyperoxaluria | – | – | –
2 | Cc1c(CC(=O)O)c(=O)oc2c(C)c(OCc3cccc(I)c3)ccc12 [DRAinh-A270] | – | – | did not affect stool parameters or cause diarrhea | dose-dependence in normalizing stool weight and pellet number, and water content; also recorded: normalizes stool water content even at low doses | largely prevented hyperoxaluria

Reference: US20230339878A1, “SLC26A3 INHIBITORS AND USE THEREOF” (THE REGENTS OF THE UNIVERSITY OF CALIFORNIA, priority 2018, published 2023)
